Source: US20060014723A1, “Anti-parasitic uses of borinic acid complexes” (priority 2004, published 2006)
≈ marks a conversion by molar mass, not a printed value.

How the values were obtained:
[1] = system: Leishmania donovani strain MHOM/ET1671L82; test: Leishmaniasis in vitro screening model (axenic amastigotes, Alamar Blue); assay type: cell-based
In short: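 Axenic L. donovani amastigotes (10^5 per well) from hamster spleen, grown at 37° C in SM medium pH 5.4 with 10% FBS, 5% CO2, exposed to serial 3-fold compound dilutions (30 to 0.041 μg/mL) for 72 h. Alamar Blue added for 2 h, fluorescence read (ex 536/em 588 nm); IC50 from sigmoidal curve versus control cultures.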

[2] = system: T. b. rhodesiense STIB 900; test: African sleeping sickness in vitro screening model (Alamar Blue); assay type: cell-based, Trypanosoma brucei rhodesiense
In short: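 Bloodstream-form trypomastigotes, 8×10^3/well, were grown in supplemented MEM with 15% horse serum, without hypoxanthine, at 37 °C in 5% CO2. They were exposed for 72 h to seven 3-fold dilutions from 90 to 0.123 μg/mL. Resazurin (Alamar Blue) was added for 2 h, fluorescence read at ex 536/em 588 nm, and IC50 taken as the mean of four values.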

[3] = system: P. Berghei; test: In vivo efficacy mouse malaria model; settings: 2×/day
Description: Test compounds will be compared to chloroquine, artemisinin, mefloquine as follows: NMRI mice, SPF, females, […]
From a donor mouse with approximately 30% parasitemia, heparinized blood is taken and diluted in physiological saline to 10^8 parasitized erythrocytes per mL. An aliquot of 0.2 mL (=2×10^7 parasitized erythrocytes) of this suspension is injected intravenously (i.v.) into experimental groups of 4 mice.
Two-to-four hours post-infection, the experimental groups are treated with a single dose by the subcutaneous or the oral route. The compounds are prepared at an appropriate concentration, as a solution or suspension containing 3% ethanol and 7% Tween 80 or in SSV (standard suspending vehicle): […]
Twenty-four hours after the last treatment ([…]) blood smears from all animals are prepared and stained with Giemsa. Parasitemia is determined microscopically by counting 400 red blood cells (“rbcs”), for low parasitemias (<1%) up to 4,000 rbc's have to be counted. The difference between the mean value of the control group (taken as 100%) and those of the experimental groups is calculated and expressed as % Reduction where: [formula]
Additional smears will be taken on day 5 and day 6; and parasitemia will be determined and the activity calculated. Survival time (in days) is recorded, and the mean survival time is calculated. Adverse effects are recorded. Four mice/compound and a minimum of 12 mice/study (vehicle and positive controls run concurrently) are used.

Compound | L. donovani IC50 [1] | T. b. rhodesiense IC50 [2] | % of Activity ([3]; 4 × 30 mg/kg, s.c.) | Mean Survival ([3]; 4 × 30 mg/kg, s.c.) | Parasitized RBC over 100 % of Control ([3]; 4 × 30 mg/kg, s.c.) | Parasitized RBC over 100 Mean ([3]; 4 × 30 mg/kg, s.c.) | % of Activity ([3]; 4 × 100 mg/kg, p.o.) | Mean Survival ([3]; 4 × 100 mg/kg, p.o.) | Parasitized RBC over 100 % of Control ([3]; 4 × 100 mg/kg, p.o.) | Parasitized RBC over 100 Mean ([3]; 4 × 100 mg/kg, p.o.) | IC50 ([1]; Leishmania donovani, read-out: L. donovani IC50) | IC50 ([2]; Trypanosoma brucei) | % of Activity ([3]; 4 × 100 mg/kg, s.c.) | Mean Survival ([3]; 4 × 100 mg/kg, s.c.) | Parasitized RBC over 100 % of Control ([3]; 4 × 100 mg/kg, s.c.) | Parasitized RBC over 100 Mean ([3]; 4 × 100 mg/kg, s.c.) | % of Activity ([3]; 4 × 300 mg/kg, p.o.) | Mean Survival ([3]; 4 × 300 mg/kg, p.o.) | Parasitized RBC over 100 % of Control ([3]; 4 × 300 mg/kg, p.o.) | Parasitized RBC over 100 Mean ([3]; 4 × 300 mg/kg, p.o.)
CC1(C)COC(c2cccc(B(Oc3cccc4cccnc34)c3cccc(C4=NC(C)(C)CO4)c3)c2)=N1 [Compound 13, Bis[3-(4,5-dihydro-4,4-dimethyloxazol-2-yl)phenyl]borinic acid 8-hydroxyquinoline ester] | 0.82 µg/mL | 0.5 µg/mL | 52.31% | 15.3 days | 47.09% | 11.9 | 81.29% | 12.7 days | 18.78% | 4.7 |  |  |  |  |  |  |  |  |  | 
COc1ccc(B(Oc2cccc3cccnc23)c2cccc(Cl)c2)cc1OC [Compound 27, (3-Chlorophenyl)(3,4-dimethoxyphenyl)borinic acid quinolin-8-yl ester] |  |  |  |  |  |  |  |  |  |  | 0.47 µg/mL (≈ 1.16 µM) | 0.52 µg/mL (≈ 1.29 µM) | 68.09% | 18.7 days | 31.91% | 7.9 | 56.94% | 15.7 days | 43.08% | 10.7
